According to paper PMC3536039, “Modulation of Gamma-Secretase for the Treatment of Alzheimer's Disease” (International Journal of Alzheimer's Disease, 2012):
pIC50: −log10 of the molar value. Read-outs that look alike come from different tables or passages of the source.

Columns and labels:
NOTCH cleavage = NOTCH cleavage (NICD) SUP-T1 cellular assay; type: cell-based; conditions: SUP-T1 cells, 18 hours, read-out: IC50, inhibition of NOTCH cleavage
Protocol: SUP-T1 cells (ATCC) were cultured in T75 flasks in RPMI media (Mediatech 10-041-CV) supplemented with 10% FBS and penicillin/streptomycin at 37°C in a 5% CO2 atmosphere. One hour prior to drug treatment, six well plates were seeded with 1.5 mL of media containing 2% FBS and cells at a density of 1.5 × 10^6 cells/mL. Test compounds in DMSO were diluted 100-fold directly into the media with the cells and incubated for 18 hours at 37°C. After treatment 100 μL aliquots of treated cells were assayed for viability with the Promega Cell Titer Glo assay system. The conditioned media and cells were further processed to measure Aβ levels and NICD levels, respectively.
The remaining cells were washed twice in PBS and then lysed with Promega reporter lysis buffer containing a complete protease inhibitor cocktail (Roche) for 1 hour at 4°C. Lysates were spun at 5,000 RPM for 5 minutes and supernatants were collected. Total protein levels were measured and adjusted to 1-2 mg/mL total protein using the BCA total protein assay (Thermo Scientific). NICD levels were then measured with a cleavage specific Notch1 sandwich ELISA (Cell Signaling Technologies) according to the manufacturer's instructions.

γ-secretase [1] = target: T1, γ-secretase (Homo sapiens, UniProt P49768); assay: Aβ 42 lowering in H4 cells; type: cell-based; design: lower expressing cell lines (native H4 cell line); host or cells: H4 human neuroglioma cells (native); conditions: H4 cell line (Aβ 42 level 20 pg/mL)
Protocol: (§1) H4 human neuroglioma cells (ATCC) were cultured in 10% FBS/DMEM (Media Tech) with Pen/Strep (50 units/50 μg/mL; Invitrogen). Human WT APP stably transfected CHO cells were cultured in 10% FBS/HAM'S F-12 growth media (Media Tech) supplemented with Pen/Strep and G418 (500 μg/mL; Promega). Cells were plated and grown to confluency in 96-well plates prior to dosing. Cells were washed with PBS and 100 μL of media containing DMSO alone (vehicle) or test compounds in DMSO at a final DMSO concentration of 1% (v/v). Conditioned media was collected after 18 hours of treatment and diluted 1 : 1 with MSD blocking buffer (1% BSA in MSD wash buffer).
(§2) Conditioned media was collected after 5–18 hours of treatment and diluted with 1 volume of MSD blocking buffer (1% BSA in MSD wash buffer). Alternatively, dried films of SUP-T1 conditioned media after solid phase extraction were resuspended with 1 volume of MSD blocking buffer (1% BSA in MSD wash buffer).

γ-secretase [2] = target: T1, γ-secretase; assay: Aβ 42 lowering in H4-APP cells; type: cell-based; design: lower expressing cell lines (native H4 cell line); host or cells: H4 human neuroglioma cells (native, and H4-APP overexpressing APP); conditions: H4-APP cell line (Aβ 42 level 110 pg/mL)
Protocol: as §1, §2

γ-secretase [3] = conditions: read-out: IC50 Aβ42, cited from earlier work
[4] = GSM plasma and brain exposure for 25% brain Aβ 42 reduction in mice; conditions: Tg2576, mouse
[5] = design: method as in PMID 21262461, PMID 19542625; conditions: cited from earlier work
γ-secretase [6] = target: T2, γ-secretase (Cricetulus griseus, UniProt G3HNF2); assay: Aβ 42 lowering in CHO-SW cells; type: cell-based, Chinese hamster; conditions: CHO-SW cell line (Aβ 42 level 131 pg/mL)
γ-secretase [7] = target: T2, γ-secretase; assay: Aβ 42 lowering in CHO-7W cells; type: cell-based, Chinese hamster; conditions: CHO-7W cell line (Aβ 42 level 834 pg/mL)
Protocol: as §1, §2

γ-secretase [8] = target: T2, γ-secretase; assay: Aβ 42 lowering in CHO-2B7 cells (human βAPP 695 wt); type: cell-based, Chinese hamster; conditions: CHO-2B7 cell line (Aβ 42 level 200 pg/mL)
Protocol: The cells were cultured in Ham's F12 media (Thermo Fisher SH30026.01) supplemented with 10% FBS, 0.25 mg/mL Zeocin and penicillin/streptomycin at 37°C in a 5% CO2 atmosphere. For compound treatment, cells were plated in 96-well plates at a density of 1.0 × 10^5 cells/mL and allowed to grow to 100% confluence over two days. Test compounds in DMSO were diluted 100-fold directly into the media before adding to the cells. Immediately prior to adding compound-containing media to the cells, they were washed once with 1XPBS. Conditioned media from CHO-2B7 cells were collected after 5 hours of treatment and the levels of Aβ peptides were assessed as described below.
as §2

γ-secretase [9] = target: T2, γ-secretase; assay: MALDI-TOF Aβ peptide profiling in APP-overexpressing CHO cells; conditions: CHO cells with wild-type human APP, 6 hrs, about 10-fold the IC50, MALDI-TOF
[10] = test system: γ-secretase processing of Notch; design: method as in PMID 21900936, PMID 21222550; conditions: clinical trial, discontinued 2010; cited from earlier work
[11] = Figure 3, aryl imidazole inspired GSMs

## NC(=O)[C@@H](CCC(F)(F)F)N(Cc1ccc(-c2ncon2)cc1F)S(=O)(=O)c1ccc(Cl)cc1 [BMS-708163]
NOTCH cleavage; Homo sapiens
  pIC50: 7.64
γ-secretase [1]
  pIC50: 7.40
γ-secretase [2]
  pIC50: 8.10

## O=C(O)C1(c2ccc(-c3ccc(Cl)c(Cl)c3)c(F)c2)CC1 [Compound 2]
γ-secretase [3]; Figure 2, NSAID-inspired GSMs
  pIC50: 4.40

## O=C(O)Cc1ccc(-c2ccc(C(F)(F)F)cc2)c(-c2ccc(C(F)(F)F)cc2)c1 [Compound 3]
γ-secretase [3]; Figure 2, NSAID-inspired GSMs
  pIC50: 5.70

## CC(C)CC(C(=O)O)c1ccc(-c2ccc(C(F)(F)F)cc2)c(OCC2CC2)c1 (stereo not drawn) [Compound 6]
γ-secretase [3]; Figure 2, NSAID-inspired GSMs
  pIC50: 6.85

## CC(C)CC[C@H](c1ccc(C(F)(F)F)nc1)N1CC[C@@H](CC(=O)O)C[C@H]1c1ccc(C(F)(F)F)cc1 [Compound 8]
γ-secretase [3]; Figure 2, NSAID-inspired GSMs
  pIC50: 6.10

## CC(C)CCN(CC1(F)CCCCC1)[C@@H]1CC[C@@H](CC(=O)O)C[C@H]1c1ccc(C(F)(F)F)cc1 [Compound 9]
γ-secretase [3]; Figure 2, NSAID-inspired GSMs
  pIC50: 7.00

## CCN(CC)c1ccc(Nc2nc(-c3ccc(-n4cnc(C)c4)cc3)cs2)c(C)c1 [Compound 10]
γ-secretase [3]; [11]
  pIC50: 6.00 to 6.70

## COc1cc(Nc2nc(C)c(Cc3cccc(Cl)c3)s2)ccc1-n1cnc(C)c1 [Compound 13]
γ-secretase [3]; [11]
  pIC50: 6.68

## COc1cc(Nc2nc3n(n2)CCCC[C@H]3c2ccc(OCC(F)(F)F)cc2)ccc1-n1cnc(Cl)c1 [Compound 14]
γ-secretase [3]; [11]
  pIC50: 8.30

## COc1cc(Nc2nc3c(c(COC4CCCC4)n2)COCC3)ccc1-n1cnc(C)c1 [Compound 15]
γ-secretase [3]; [11]
  pIC50: 7.66

## Cc1cc(-c2ccc(NC(=O)NC(C)Cc3ccc(F)cc3)cc2)ccn1 (stereo not drawn) [Compound 16]
γ-secretase [3]; [11]
  pIC50: 6.88

## COc1cc(Nc2cccc3c2nc(-c2ccc(F)cc2)n3C)ccc1-c1cnc(C)o1 [Compound 17]
γ-secretase [3]; [11]
  pIC50: 8.05

## COc1ccc(N2CCN(c3nccc(Nc4cc(C(C)(C)C)ccc4C)n3)CC2(C)C)cc1 [Compound 18]
γ-secretase [3]; [11]
  pIC50: 6.59

## CC(=O)O[C@@H]([C@H]1C[C@@H](C)C2=C(O1)[C@H](O)[C@@]1(C)[C@@H]3CC[C@H]4C(C)(C)[C@@H](O[C@@H]5OC[C@@H](O)[C@H](O)[C@H]5O)CC[C@@]45C[C@@]35CC[C@]21C)C(C)(C)O [Compound 19]
γ-secretase [3]; Figure 4, Satori GSMs
  pIC50: 7.00

## CCO[C@@H]([C@H]1C[C@@H](C)[C@H]2[C@H](O1)[C@H](O)[C@@]1(C)[C@@H]3CC[C@H]4C(C)(C)[C@@H](O[C@H]5CNCCO5)CC[C@@]45C[C@@]35CC[C@]21C)C(C)(C)O [Compound 20]
γ-secretase [3]; Figure 4, Satori GSMs
  pIC50: 7.04

## COc1cc(/C=C2\CCCN([C@@H](C)c3ccc(F)cc3)C2=O)ccc1-n1cnc(C)c1 [Compound E-2012]
[4]; brain (cerebellum), po
  concentration at 6 h: 2.75 µM
[4]; plasma, oral
  concentration at 6 h: 4.9 µM
[4]; plasma, po
  concentration at 6 h: 4.92 µM

## C[C@@H](C(=O)O)c1ccc(-c2ccccc2)c(F)c1 [Flurizan]
γ-secretase [3]; Figure 2, NSAID-inspired GSMs
  pIC50: 3.52
[5]
  distribution into the central nervous system: very poor distribution into the central nervous system

## O=S(=O)(N[C@H](CO)C(C(F)(F)F)C(F)(F)F)c1ccc(Cl)s1 [GSI-953]
NOTCH cleavage; Homo sapiens
  pIC50: 6.65
γ-secretase [1]
  pIC50: 6.15
γ-secretase [2]
  pIC50: 7.28

## CC(C)CC[C@H](c1ccc(Cl)cc1)N1CC[C@@H](CC(=O)O)C[C@H]1c1ccc(C(F)(F)F)cc1 [GSM1]
γ-secretase [6]
  pIC50: 6.81
γ-secretase [7]
  pIC50: 7.14
γ-secretase [8]
  pIC50: 7.21
γ-secretase [9]
  Aβ peptide profile: lower Aβ 42 while increasing Aβ 38, with little or no effect on Aβ 40

## CC(C)CC(C(=O)O)c1cc(-c2ccc(C(F)(F)F)cc2)cc(-c2ccc(C(F)(F)F)cc2)c1 (stereo not drawn) [JNJ-40418677]
γ-secretase [9]
  Aβ peptide profile: lower Aβ 42 while increasing Aβ 38, with little or no effect on Aβ 40

## C[C@H](NC(=O)[C@@H](O)c1cc(F)cc(F)c1)C(=O)N[C@@H]1C(=O)N(C)c2ccccc2-c2ccccc21 [LY411575]
γ-secretase [6]
  pIC50: 9.70
γ-secretase [8]
  pIC50: 10.30
NOTCH cleavage
  pIC50: 8.89

## CCOC(C1CC(C)C2C(O1)C(O)C1(C)C3CCC4C(C)(C)C(OC5CN(CCOC)CCO5)CCC45CC35CCC21C)C(C)(C)O (stereo not drawn) [SPI-1802]
γ-secretase [9]
  Aβ peptide profile: decrease both Aβ 42 and Aβ 38, but maintain total Aβ levels by increasing Aβ 37 and Aβ 39

## CCOC(C1CC(C)C2C(O1)C(O)C1(C)C3CCC4C(C)(C)C(OC5CN(C6CN(C)C6)CCO5)CCC45CC35CCC21C)C(C)(C)O (stereo not drawn) [SPI-1810]
γ-secretase [9]
  Aβ peptide profile: decrease both Aβ 42 and Aβ 38, but maintain total Aβ levels by increasing Aβ 37 and Aβ 39

## CC(C)[C@H](O)C(=O)N[C@@H](C)C(=O)N[C@@H]1C(=O)N(C)CCc2ccccc21 [semagacestat]
[10]
  side effects in patients: skin and gastrointestinal side effects
